Source: article PMC3149845 (The Journal of neuroscience : the official journal of the …, 2011)
Like-named read-outs stand apart in the source and are kept apart here. Peptide text beside a SMILES is read from it.

How the values were obtained:
[1] = biological target: T1, hTas1R2:I67S/D142E+hTas1R3 (Homo sapiens, UniProt Q8TE23, D142E/I67S); test: Ca2+ mobilization, mutated human receptor; format: cell-based; conditions: for calcium response to sweetener: aspartame 10mM, neotame 1mM, sucralose 2 mM, compared with hTas1R2/hTas1R3; for response in dose-response experiment: versus hTas1R2+hTas1R3
T1 sequence (Q8TE23 20-839 I67S/D142E): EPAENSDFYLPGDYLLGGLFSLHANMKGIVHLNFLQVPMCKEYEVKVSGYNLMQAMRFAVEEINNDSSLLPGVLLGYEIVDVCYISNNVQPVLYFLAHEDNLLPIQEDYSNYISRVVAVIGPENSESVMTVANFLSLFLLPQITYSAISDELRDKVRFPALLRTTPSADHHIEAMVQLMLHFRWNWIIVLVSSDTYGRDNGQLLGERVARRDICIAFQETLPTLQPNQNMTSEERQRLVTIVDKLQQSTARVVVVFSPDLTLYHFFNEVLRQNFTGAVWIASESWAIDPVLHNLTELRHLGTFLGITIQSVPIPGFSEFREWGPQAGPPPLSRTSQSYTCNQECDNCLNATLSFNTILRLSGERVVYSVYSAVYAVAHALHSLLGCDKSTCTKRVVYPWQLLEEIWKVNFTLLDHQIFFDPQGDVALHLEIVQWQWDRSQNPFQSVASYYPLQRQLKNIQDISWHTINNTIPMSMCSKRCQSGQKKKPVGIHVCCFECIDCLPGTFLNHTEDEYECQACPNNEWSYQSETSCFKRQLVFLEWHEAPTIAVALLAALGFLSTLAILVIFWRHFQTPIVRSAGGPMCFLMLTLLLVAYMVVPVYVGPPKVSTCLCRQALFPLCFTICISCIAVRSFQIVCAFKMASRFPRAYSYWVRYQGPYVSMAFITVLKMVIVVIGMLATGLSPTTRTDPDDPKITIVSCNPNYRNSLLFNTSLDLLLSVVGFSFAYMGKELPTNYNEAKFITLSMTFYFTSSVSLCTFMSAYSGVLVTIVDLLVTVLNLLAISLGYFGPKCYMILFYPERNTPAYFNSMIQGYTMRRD
T1 sequence (Q7RTX0 21-852 partner): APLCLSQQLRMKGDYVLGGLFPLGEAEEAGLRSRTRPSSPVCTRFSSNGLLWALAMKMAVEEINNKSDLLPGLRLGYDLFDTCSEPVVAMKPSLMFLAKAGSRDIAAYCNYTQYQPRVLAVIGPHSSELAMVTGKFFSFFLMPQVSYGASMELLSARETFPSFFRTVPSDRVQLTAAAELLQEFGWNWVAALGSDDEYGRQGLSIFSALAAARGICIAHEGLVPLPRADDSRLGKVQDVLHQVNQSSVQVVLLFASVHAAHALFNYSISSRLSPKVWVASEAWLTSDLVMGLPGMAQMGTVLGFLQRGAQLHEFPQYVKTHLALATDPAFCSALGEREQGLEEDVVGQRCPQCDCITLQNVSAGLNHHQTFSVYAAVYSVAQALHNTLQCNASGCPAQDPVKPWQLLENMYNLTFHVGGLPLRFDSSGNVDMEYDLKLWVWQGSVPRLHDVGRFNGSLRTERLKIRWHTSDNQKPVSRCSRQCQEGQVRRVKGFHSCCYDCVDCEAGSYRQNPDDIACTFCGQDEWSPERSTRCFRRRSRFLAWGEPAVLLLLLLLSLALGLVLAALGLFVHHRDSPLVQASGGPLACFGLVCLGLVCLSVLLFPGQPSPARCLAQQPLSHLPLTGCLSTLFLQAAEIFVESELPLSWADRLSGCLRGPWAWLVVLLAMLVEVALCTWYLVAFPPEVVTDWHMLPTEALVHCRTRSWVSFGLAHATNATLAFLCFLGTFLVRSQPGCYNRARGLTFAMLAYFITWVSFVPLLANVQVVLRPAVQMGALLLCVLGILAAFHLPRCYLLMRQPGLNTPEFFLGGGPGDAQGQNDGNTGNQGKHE

[2] = cited from earlier work
[3] = biological target: smTas1R2:T40S/S67I/E142D+smTas1R3 (Saimiri sciureus, UniProt A3QP08, E142D/S67I/T40S); test: Ca2+ mobilization, mutated squirrel monkey receptor; format: cell-based, squirrel monkey (Saimiri sciureus); conditions: for calcium response to sweetener: aspartame 10mM, neotame 1mM, sucralose 2 mM, compared with smTas1R2/smTas1R3; for response in dose-response experiment: versus smTas1R2+smTas1R3; for Bottom (B) of sigmoid dose-response fit / Top (T) of sigmoid dose-response fit: ΔF/F normalized to maximum response of hTas1R2/hTas1R3 to neotame
smTas1R2:S67I+smTas1R3 = smTas1R2:S67I+smTas1R3 (Saimiri sciureus, UniProt A3QP08, S67I); test: as above; format: cell-based, squirrel monkey (Saimiri sciureus); conditions: aspartame 10mM, neotame 1mM, sucralose 2 mM; compared with smTas1R2/smTas1R3
smTas1R2/smTas1R3 = smTas1R2/smTas1R3 (Saimiri sciureus, UniProt A3QP08); test: Ca2+ mobilization, wild type squirrel monkey sweet taste receptor; format: cell-based, squirrel monkey (Saimiri sciureus); conditions: HEK293E cells with Gα16-gust44
smTas1R2:T40S+smTas1R3 = smTas1R2:T40S+smTas1R3 (Saimiri sciureus, UniProt A3QP08, T40S); test: Ca2+ mobilization, mutated squirrel monkey receptor; format: cell-based, squirrel monkey (Saimiri sciureus); conditions: aspartame 10mM, neotame 1mM, sucralose 2 mM; compared with smTas1R2/smTas1R3
[4] = HEK293E cells with Gα16-gust44, dose-response, calcium mobilization
[5] = ΔF/F normalized to maximum response of hTas1R2/hTas1R3 to neotame

Chain of smTas1R2:T40S/S67I/E142D+smTas1R3 (A3QP08 20-834 T40S/S67I/E142D): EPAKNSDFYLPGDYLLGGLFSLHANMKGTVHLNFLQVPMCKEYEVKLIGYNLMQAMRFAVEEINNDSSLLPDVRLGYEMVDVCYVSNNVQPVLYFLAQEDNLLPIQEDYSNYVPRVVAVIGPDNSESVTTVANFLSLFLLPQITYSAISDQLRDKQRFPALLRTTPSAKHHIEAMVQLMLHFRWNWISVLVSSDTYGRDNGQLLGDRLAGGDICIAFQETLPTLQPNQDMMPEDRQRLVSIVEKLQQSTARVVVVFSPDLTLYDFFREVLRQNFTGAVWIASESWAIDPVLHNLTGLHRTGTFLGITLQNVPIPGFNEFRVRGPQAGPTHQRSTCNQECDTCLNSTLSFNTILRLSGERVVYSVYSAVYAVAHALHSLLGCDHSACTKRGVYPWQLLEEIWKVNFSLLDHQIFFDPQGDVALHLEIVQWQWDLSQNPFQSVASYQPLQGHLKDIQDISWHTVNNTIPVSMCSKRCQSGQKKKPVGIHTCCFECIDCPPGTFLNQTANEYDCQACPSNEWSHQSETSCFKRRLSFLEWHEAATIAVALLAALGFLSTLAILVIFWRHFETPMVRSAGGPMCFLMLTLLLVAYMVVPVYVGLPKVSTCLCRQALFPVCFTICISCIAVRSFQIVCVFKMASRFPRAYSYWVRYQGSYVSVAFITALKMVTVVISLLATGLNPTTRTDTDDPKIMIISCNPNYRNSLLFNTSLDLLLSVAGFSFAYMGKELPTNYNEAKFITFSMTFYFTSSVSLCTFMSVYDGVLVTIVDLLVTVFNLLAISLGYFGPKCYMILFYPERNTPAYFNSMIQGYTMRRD
Chain of smTas1R2/smTas1R3 (A3QP08 20-834): as the sequence (A3QP08 20-834 T40S/S67I/E142D) above, with S21T, I48S, D123E counted along it
Chain of smTas1R2:T40S+smTas1R3 (A3QP08 20-834 T40S): as the sequence (A3QP08 20-834 T40S/S67I/E142D) above, with I48S, D123E counted along it
Chain of smTas1R2:S67I+smTas1R3 (A3QP08 20-834 S67I): as the sequence (A3QP08 20-834 T40S/S67I/E142D) above, with S21T, D123E counted along it

Compound | EC50 [1, 4] [mM] | calcium response to sweetener [1] | response in dose-response experiment ([1]; dose-response) | Bottom (B) of sigmoid dose-response fit [1, 5] | Top (T) of sigmoid dose-response fit [1, 5] | sweetness relative to aspartame ([2]; ref Garbow et al., 2001) | EC50 [3, 4] [mM] | calcium response to sweetener [3] | response in dose-response experiment ([3]; dose-response) | Bottom (B) of sigmoid dose-response fit [3] | Top (T) of sigmoid dose-response fit [3] | calcium response to sweetener (smTas1R2:S67I+smTas1R3) | response in dose-response experiment (smTas1R2/smTas1R3) | calcium response to sweetener (smTas1R2:T40S+smTas1R3) | sweet potency relative to sucrose ([2]; ref Meguro et al., 2000) [times] | EC50 [3] [mM]
COC(=O)[C@H](Cc1ccccc1)NC(=O)[C@H](CC(=O)O)NCCC(C)(C)C [neotame] | 4.7 | significant reduction | weaker responses | −1.772 | 51.81 | about 40 times | 0.28 | significant responses | good responses | −4.671 | 51.73 | not able to recover | no response | not able to recover |  | 
COC(=O)[C@H](Cc1ccccc1)NC(=O)[C@@H](N)CC(=O)O [aspartame, L-α-aspartly-L-phenylalanine methyl ester] (H-Asp-Phe-OMe) |  | abolition | no responses |  |  |  |  | significant responses | good response | −2.882 | 32.61 | not able to recover | no response | not able to recover | 200 | 1.2
